Values of other authors, collected in US20030190360A1, “Chronotherapeutic dosage forms containing glucocorticosteroid and methods of treatment” (priority 2001, published 2003).

Conditions: equivalent doses of glucocorticoids

Row | Compound | Approximate Equivalent Dose [mg]
1 | C[C@]12CCC(=O)C=C1CC[C@@H]1[C@@H]2C(=O)C[C@@]2(C)[C@H]1CC[C@]2(O)C(=O)CO [Cortisone] | 25
2 | C[C@]12CCC(=O)C=C1CC[C@@H]1[C@@H]2[C@@H](O)C[C@@]2(C)[C@H]1CC[C@]2(O)C(=O)CO [Hydrocortisone] | 20
3 | C[C@]12C=CC(=O)C=C1CC[C@@H]1[C@@H]2[C@@H](O)C[C@@]2(C)[C@H]1CC[C@]2(O)C(=O)CO [Prednisolone] | 5
4 | C[C@]12C=CC(=O)C=C1CC[C@H]1[C@@H]3C[C@@H](O)[C@](O)(C(=O)CO)[C@@]3(C)C[C@H](O)[C@@]12F [Triamcinolone] | 4
